Measurements from patent US7459444B2, “Inhibitors of chymase” (Janssen Pharmaceutica N.V., priority 2004, dated 2008).

Experiments:
[1] = Pharmacokinetic assay for evaluation of oral absorption potential; format: in vivo; settings: male Sprague Dawley rats, oral gavage 15 mg/kg in 20% hydroxy-beta-cyclo dextran, plasma, N = 2; for Cmax at 2 h: rat
Procedure: Male Sprague Dawley rats, weighing 250-300 g, were fasted overnight then dosed by oral gavage at a level of 15 mg/kg with a compound. Compounds were formulated in 20% hydroxy-beta-cyclo dextran.
Blood samples (0.5 mL) were collected into lithium heparinized tubes at 0.5, 1.0 and 2.0 h post dose via orbital sinus puncture. Blood samples were centrifuged at 2000 rpm for ˜3 min for cell removal, approximately 200 μL of plasma supernatant was then transferred to a clean vial, frozen then placed on dry ice and delivered to SFBC Analytical Labs, Inc. for analysis.
Plasma samples were prepared as follows. Two hundred microliters of acetonitrile containing 1 μM internal standard was added to 100 μL of plasma to precipitate proteins. Samples were centrifuged at 5000 g for 5 min and supernatant removed for analysis by LC-MS. Two hundred microliters of water was added to adjust sample solvent strength and prevent peak splitting. Calibration standards were prepared by adding appropriate volumes of stock solution directly into plasma and treated identically to collected plasma samples. Calibration standards were prepared in the range of 0.1 to 10 μM for quantitation. LC-MS analysis was performed using MRM (Multiple Reaction Monitoring) detection of characteristic ions for each drug candidate and internal standard.

angiotensin II activity = settings: human vascular extracts; cited from earlier work
[2] = system: Ascaris suum antigen-induced asthmatic response in conscious sheep; experiment: Ascaris suum antigen-induced asthmatic response in conscious sheep; format: in vivo; settings: for early airway response (0-2 h after antigen challenge) / late airway response (6-8 h after antigen challenge): n=2 sheep/group
Procedure: The efficacy of Compound 17 for the treatment of asthma was evaluated in a validated model of Ascaris suum antigen-induced asthmatic response in conscious sheep (Abraham, W. M., Pharmacology of allergen-induced early and late airway responses and antigen-induced airway hyperresponsiveness in allergic sheep, Pulmonary Pharmacology, 1989, 2, 33-40).
Baseline (BSL) dose response curves to aerosol carbachol were obtained from historical control responses prior to antigen challenge. Baseline values of specific lung resistance (SRL) were obtained and the sheep were then given a specified amount (mg) of the test compound as an inhaled aerosol or as a oral dose at a specified time before antigen challenge. Post-drug measurements of SRL were obtained and the sheep were then challenged with Ascaris suum antigen. Measurements of SRL were obtained immediately after challenge, hourly from 1-6 h after challenge and on the half-hour from 6½-8 h after challenge. Measurements of SRL were obtained 24 h after challenge followed by a 24 h post-challenge with carbachol to measure airway hyperreactivity.
Compound 17 was administered as an aerosol at 4.5 mg/dose (ca. 0.1 mg/Kg/dose, based on a 45 Kg sheep), twice-a-day (BID) for three consecutive days, followed by a dose on day 4, 0.5 h prior to antigen challenge. Ascaris suum antigen challenge was given at the zero time point.
Compound 17 was administered as an oral solution at 15 mg/Kg/dose, twice-a-day (BID) for three consecutive days, followed by a dose on day 4, 2 h prior to antigen challenge. Ascaris suum antigen challenge was given at the zero time point.

[3] = aerosol 4.5 mg/dose BID for three days plus dose on day 4, 0.5 h prior to antigen challenge, FIG. 1
[4] = oral solution 15 mg/Kg/dose BID for three days plus dose on day 4, 2 h prior to antigen challenge, FIG. 3

SMILES: CC(C)(C)C(=O)OCOP(=O)(O)C(C(=O)N/C=C/c1ccc(F)c(F)c1)c1csc2ccc(Cl)cc12 (stereo not shown) [Cpd 187, 2,2-Dimethyl-propionic acid {(5-chloro-benzo[b]thiophen-3-yl)-[2-(3,4-difluoro-phenyl)-vinylcarbamoyl]-methyl}-hydroxy-phosphinoyloxymethyl ester]
- Cmax at 2 h [1]: 21.4 ± 11 µM

SMILES: CC(C)(C)C(=O)OCOP(=O)(O)C(C(=O)N/C=C/c1ccccc1)c1cccc2ccccc12 (stereo not shown) [Cpd 177]
- Cmax at 2 h [1]: 2 ± 1.1 µM

SMILES: CP(=O)(OCCN)C(C(=O)NC=Cc1ccc(F)c(F)c1)c1csc2ccc(Cl)cc12 (stereo not shown) [Cpd 184, {(5-Chloro-benzo[b]thiophen-3-yl)-[2-(3,4-difluoro-phenyl)-vinylcarbamoyl]-methyl}-methyl-phosphinic acid 2-amino-ethyl ester]
- Cmax at 2 h [1]: 0.1 ± 0.05 µM

SMILES: CCN(CC)C(=O)COP(C)(=O)C(C(=O)NC=Cc1ccc(F)c(F)c1)c1csc2ccc(Cl)cc12 (stereo not shown) [Cpd 185, {(5-Chloro-benzo[b]thiophen-3-yl)-[2-(3,4-difluoro-phenyl)-vinylcarbamoyl]-methyl}-methyl-phosphinic acid diethylcarbamoylmethyl ester]
- Cmax at 2 h [1]: 2.1 ± 0.23 µM

SMILES: CCN(CC)C(=O)COP(=O)(OCC(=O)N(CC)CC)C(C(=O)N/C=C/c1ccccc1)c1cccc2ccccc12 (stereo not shown) [Cpd 180, (Naphthalen-1-yl-styrylcarbamoyl-methyl)-phosphonic acid didiethylcarbamoylmethyl ester]
- Cmax at 2 h [1]: < 0.1 µM

SMILES: CC(C)(C)C(=O)OCOP(C)(=O)C(C(=O)N/C=C/c1ccc(F)c(F)c1)c1csc2ccc(Cl)cc12 (stereo not shown) [Cpd 182]
- Cmax at 2 h [1]: 11.8 ± 3.26 µM

SMILES: NCCCC[C@H](N[C@@H](CCc1ccccc1)C(=O)O)C(=O)N1CCC[C@H]1C(=O)O [lisinopril]
- angiotensin II activity inhibited (angiotensin II activity): about 8%

SMILES: O=C(N/C=C/c1ccc(F)c(F)c1)C(c1csc2ccc(Cl)cc12)P1(=O)OCCCO1 (stereo not shown) [Cpd 189, 2-(5-Chloro-benzo[b]thiophen-3-yl)-N-[2-(3,4-difluoro-phenyl)-vinyl]-2-(2-oxo-2,5-[1,3,2]dioxaphosphinan-2-yl)-acetamide]
- Cmax at 2 h [1]: 21.1 ± 2.3 µM

SMILES: CC(C)(C)C(=O)OCOP(=O)(OCOC(=O)C(C)(C)C)C(C(=O)N/C=C/c1ccc(F)c(F)c1)c1csc2ccc(Cl)cc12 (stereo not shown) [Cpd 186, 2,2-Dimethyl-propionic acid {(5-chloro-benzo[b]thiophen-3-yl)-[2-(3,4-difluoro-phenyl)-vinylcarbamoyl]-methyl}-(2,2-dimethyl-propionyloxymethoxy)-phosphinoyloxymethyl ester]
- Cmax at 2 h [1]: 20.1 ± 3.5 µM

SMILES: CP(=O)(O)C(C(=O)N/C=C/c1ccc(F)c(F)c1)c1csc2ccc(Cl)cc12 (stereo not shown) [Cpd 17]
- early airway response (0-2 h after antigen challenge) [2, 3]: unchanged
- late airway response (6-8 h after antigen challenge) [2, 3]: completely blocked
- delayed airway hyperreactivity at 24 h post antigen challenge (carbachol challenge) ([2]; aerosol administration, FIG. 2): completely blocked
- delayed airway hyperreactivity at 24 h post antigen challenge (carbachol challenge) ([2]; oral administration, FIG. 4): completely blocked
- early airway response (0-2 h after antigen challenge) [2, 4]: unchanged
- late airway response (6-8 h after antigen challenge) [2, 4]: completely blocked

SMILES: O=C(NC=Cc1ccccc1)C(c1cccc2ccccc12)P1(=O)OCCCO1 (stereo not shown) [Cpd 178, 2-Naphthalen-1-yl-2-(2-oxo-2l5-[1,3,2]dioxaphosphinan-2-yl)-N-styryl-acetamide]
- Cmax ([1]; read-out: CMax (μM) @ 2 h): 4.1 ± 0.28 µM
